Test results from patent US6746850B2 (priority 2000, dated 2004).
Several values for one entry are separate records, joined by “and”; a condition that tells them apart may be missing. Identical values can stand only once.

Assays:
BChE [1] = target: T1, BChE (Cavia porcellus, UniProt H0V4F8); assay type: biochemical, Hartley guinea pig
AChE [2] = target: T2, AChE (Cavia porcellus, UniProt D3YE96); details: guinea pig, in vivo
AChE [3] = target: AChE (Homo sapiens, UniProt P22303); assay type: biochemical
BChE [4] = target: BChE (Homo sapiens, UniProt P06276); assay type: biochemical
AChE [5] = target: T2, AChE; assay type: biochemical, Hartley guinea pig
AChE [6] = target: AChE (Rattus norvegicus, UniProt P37136); assay type: biochemical, Sprague Dawley rat
AChE [7] = target: AChE (Macaca mulatta, UniProt A0A5F7ZPE9); assay type: biochemical, Rhesus monkey
BChE [8] = target: BChE (Rattus norvegicus, UniProt Q9JKC1); assay type: biochemical, Sprague Dawley rat
BChE [9] = assay type: biochemical, Rhesus monkey
BChE [10] = target: T1, BChE; assay type: biochemical, Hartley guinea pig; remark: listed apart in the source
AChE [11] = target: T2, AChE; assay type: biochemical, Hartley guinea pig; remark: listed apart in the source

| SMILES | AChE Coefficient (sensitivity coefficient) Value (AChE [3]) | BChE Coefficient (sensitivity coefficient) Value (BChE [4]) | AChE Coefficient (sensitivity coefficient) Value (AChE [6]) | AChE Coefficient (sensitivity coefficient) Value (AChE [7]) | BChE Coefficient (sensitivity coefficient) Value (BChE [8]) | BChE Coefficient (sensitivity coefficient) Value (BChE [9]) | further results |
| --- | --- | --- | --- | --- | --- | --- | --- |
| C/C=C1\[C@H]2C=C(C)C[C@]1(N)c1ccc(=O)[nH]c1C2 (racemic) [rac Hup-A, Racemic huperzine-A] | – | – | – | – | – | – | BChE Average (BChE [1]): 0.907 U/mL and 0.930 U/mL and 0.913 U/mL and 0.929 U/mL and 0.912 U/mL and 0.892 U/mL |
| CN(C)C(=O)Oc1ccc[n+](C)c1 [PB, pyridostigmine bromide] | – | – | – | – | – | – | peak inhibition time (AChE [2]): about 30 minutes |
| CCCC(=O)SCC[N+](C)(C)C.[I-] [BTC, butyrylthiocholine iodide] | 82 mAbs/min/[blood] | 1466 mAbs/min/[blood] | 0 mAbs/min/[blood] | 0 mAbs/min/[blood] | 62 mAbs/min/[blood] | 661 mAbs/min/[blood] | AChE Coefficient (sensitivity coefficient) Value (AChE [5]): 0 mAbs/min/[blood] |
| CCC(=O)SCC[N+](C)(C)C.[I-] [PTC, propionylthiocholine iodide] | 1071 mAbs/min/[blood] | 1417 mAbs/min/[blood] | 158 mAbs/min/[blood] | 844 mAbs/min/[blood] | 134 mAbs/min/[blood] | 514 mAbs/min/[blood] | – |
| C[n+]1ccccc1C=NO [2-PAM] | – | – | – | – | – | – | effect on BChE (BChE [10]): relatively unaffected; effect on AChE (AChE [11]): inhibited |
